Measurements reported in PubChem BioAssay AID1963854 (Molecular Pharmacology Branch, DTP, NCI, 2024).

System: 186277-243-T-J2-PDC complex spheroid viability
Experiment: Anticancer human tumor 186277-243-T-J2-PDC patient-derived colon adenocarcinoma cell line growth inhibition [POLQ]
Conditions: for IC50: curve of first compound; for viability, T/C: stronger effect = lower value
In short: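 Growth inhibition in 3D: complex spheroids (tumor PDC, HUVEC, MSC) treated with POLQ inhibitor combinations; where Cmax unknown, highest tested concentration 10 microM, except SN-38 at 1 microM.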

[1] = second compound 0.0316 µM, first compound 0.0316 µM
[2] = second compound 0.0316 µM, first compound 0.1 µM
[3] = second compound 0.0316 µM, first compound 0.316 µM
[4] = second compound 0.0316 µM, first compound 1 µM
[5] = second compound 0.0316 µM, first compound 3.16 µM
[6] = second compound 0.0316 µM, first compound 10 µM
[7] = second compound 0.1 µM, first compound 0.0316 µM
[8] = second compound 0.1 µM, first compound 0.1 µM
[9] = second compound 0.1 µM, first compound 0.316 µM
[10] = second compound 0.1 µM, first compound 1 µM
[11] = second compound 0.1 µM, first compound 3.16 µM
[12] = second compound 0.1 µM, first compound 10 µM
[13] = second compound 0.316 µM, first compound 0.0316 µM
[14] = second compound 0.316 µM, first compound 0.1 µM
[15] = second compound 0.316 µM, first compound 0.316 µM
[16] = second compound 0.316 µM, first compound 1 µM
[17] = second compound 0.316 µM, first compound 3.16 µM
[18] = second compound 0.316 µM, first compound 10 µM
[19] = second compound 1 µM, first compound 0.0316 µM
[20] = second compound 1 µM, first compound 0.1 µM
[21] = second compound 1 µM, first compound 0.316 µM
[22] = second compound 1 µM, first compound 1 µM
[23] = second compound 1 µM, first compound 3.16 µM
[24] = second compound 1 µM, first compound 10 µM
[25] = second compound 3.16 µM, first compound 0.0316 µM
[26] = second compound 3.16 µM, first compound 0.1 µM
[27] = second compound 3.16 µM, first compound 0.316 µM
[28] = second compound 3.16 µM, first compound 1 µM
[29] = second compound 3.16 µM, first compound 3.16 µM
[30] = second compound 3.16 µM, first compound 10 µM
[31] = second compound 10 µM, first compound 0.0316 µM
[32] = second compound 10 µM, first compound 0.1 µM
[33] = second compound 10 µM, first compound 0.316 µM
[34] = second compound 10 µM, first compound 1 µM
[35] = second compound 10 µM, first compound 3.16 µM
[36] = second compound 10 µM, first compound 10 µM
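Further: spheroids exposed to compounds for seven days.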
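Wherever viability, T/C is given: 100% = DMSO vehicle control viability.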

CC1COCCN1c1cc(C2(S(C)(=N)=O)CC2)nc(-c2ccnc3[nH]ccc23)n1 (stereo not drawn) + COC1C(OC(N)=O)C(O)C(Oc2ccc3c(O)c(NC(=O)c4ccc(O)c(CC=C(C)C)c4)c(=O)oc3c2C)OC1(C)C
IC50 (second compound 0.0316 µM): 793 nM | IC50 (second compound 0.1 µM): 817 nM | IC50 (second compound 0.316 µM): 798 nM | IC50 (second compound 1 µM): 822 nM | IC50 (second compound 3.16 µM): 788 nM | IC50 (second compound 10 µM): 776 nM | viability, T/C [1]: 111% | viability, T/C [2]: 96.6% | viability, T/C [3]: 117% | viability, T/C [4]: 35.3% | viability, T/C [5]: 5.81% | viability, T/C [6]: 4.54% | viability, T/C [7]: 98% | viability, T/C [8]: 107% | viability, T/C [9]: 111% | viability, T/C [10]: 38.1% | viability, T/C [11]: 6.12% | viability, T/C [12]: 4.78% | viability, T/C [13]: 97.5% | viability, T/C [14]: 111% | viability, T/C [15]: 104% | viability, T/C [16]: 36.9% | viability, T/C [17]: 6.74% | viability, T/C [18]: 4.71% | viability, T/C [19]: 95.8% | viability, T/C [20]: 98.2% | viability, T/C [21]: 105% | viability, T/C [22]: 39.8% | viability, T/C [23]: 6.98% | viability, T/C [24]: 4.23% | viability, T/C [25]: 94.8% | viability, T/C [26]: 100% | viability, T/C [27]: 104% | viability, T/C [28]: 37.1% | viability, T/C [29]: 6.45% | viability, T/C [30]: 5.04% | viability, T/C [31]: 108% | viability, T/C [32]: 104% | viability, T/C [33]: 106% | viability, T/C [34]: 34.1% | viability, T/C [35]: 7.67% | viability, T/C [36]: 5.44%

CCc1cc2c(N3CCc4c(cc(Cn5ccnc5)cc4-c4cn(C)nc4C(F)(F)F)C3=O)ccnc2c(OC)n1 + COC1C(OC(N)=O)C(O)C(Oc2ccc3c(O)c(NC(=O)c4ccc(O)c(CC=C(C)C)c4)c(=O)oc3c2C)OC1(C)C
IC50 (second compound 0.0316 µM): > 10000 nM | IC50 (second compound 0.1 µM): > 10000 nM | IC50 (second compound 0.316 µM): > 10000 nM | IC50 (second compound 1 µM): > 10000 nM | IC50 (second compound 3.16 µM): > 10000 nM | IC50 (second compound 10 µM): > 10000 nM | viability, T/C [1]: 94.6% | viability, T/C [2]: 94% | viability, T/C [3]: 116% | viability, T/C [4]: 87.8% | viability, T/C [5]: 92.6% | viability, T/C [6]: 74.9% | viability, T/C [7]: 97.5% | viability, T/C [8]: 95.2% | viability, T/C [9]: 111% | viability, T/C [10]: 104% | viability, T/C [11]: 86% | viability, T/C [12]: 74.3% | viability, T/C [13]: 83.3% | viability, T/C [14]: 105% | viability, T/C [15]: 98% | viability, T/C [16]: 87.8% | viability, T/C [17]: 89.7% | viability, T/C [18]: 73.3% | viability, T/C [19]: 94.1% | viability, T/C [20]: 103% | viability, T/C [21]: 86.5% | viability, T/C [22]: 106% | viability, T/C [23]: 107% | viability, T/C [24]: 74.8% | viability, T/C [25]: 107% | viability, T/C [26]: 100% | viability, T/C [27]: 99.1% | viability, T/C [28]: 93.1% | viability, T/C [29]: 89.1% | viability, T/C [30]: 75.5% | viability, T/C [31]: 101% | viability, T/C [32]: 99.7% | viability, T/C [33]: 107% | viability, T/C [34]: 101% | viability, T/C [35]: 109% | viability, T/C [36]: 83.6%

CCc1c2c(nc3ccc(O)cc13)-c1cc3c(c(=O)n1C2)COC(=O)[C@]3(O)CC + COC1C(OC(N)=O)C(O)C(Oc2ccc3c(O)c(NC(=O)c4ccc(O)c(CC=C(C)C)c4)c(=O)oc3c2C)OC1(C)C
IC50 (second compound 0.0316 µM): 6.67 nM | IC50 (second compound 0.1 µM): 6.31 nM | IC50 (second compound 0.316 µM): 6.22 nM | IC50 (second compound 1 µM): 5.81 nM | IC50 (second compound 3.16 µM): 4.06 nM | IC50 (second compound 10 µM): 4.2 nM | viability, T/C (second compound 0.0316 µM, first compound 0.00316 µM): 60.8% | viability, T/C (second compound 0.0316 µM, first compound 0.01 µM): 44.3% | viability, T/C [1]: 21.4% | viability, T/C [2]: 11.2% | viability, T/C [3]: 8.38% | viability, T/C [4]: 6.45% | viability, T/C (second compound 0.1 µM, first compound 0.00316 µM): 65% | viability, T/C (second compound 0.1 µM, first compound 0.01 µM): 39.7% | viability, T/C [7]: 21.9% | viability, T/C [8]: 10.4% | viability, T/C [9]: 8.32% | viability, T/C [10]: 6.78% | viability, T/C (second compound 0.316 µM, first compound 0.00316 µM): 61.1% | viability, T/C (second compound 0.316 µM, first compound 0.01 µM): 42% | viability, T/C [13]: 22.4% | viability, T/C [14]: 10.3% | viability, T/C [15]: 7.76% | viability, T/C [16]: 6.8% | viability, T/C (second compound 1 µM, first compound 0.00316 µM): 61.8% | viability, T/C (second compound 1 µM, first compound 0.01 µM): 39.2% | viability, T/C [19]: 21.6% | viability, T/C [20]: 10.2% | viability, T/C [21]: 8.22% | viability, T/C [22]: 6.39% | viability, T/C (second compound 3.16 µM, first compound 0.00316 µM): 53.1% | viability, T/C (second compound 3.16 µM, first compound 0.01 µM): 38.8% | viability, T/C [25]: 19.7% | viability, T/C [26]: 9.79% | viability, T/C [27]: 7.9% | viability, T/C [28]: 6.76% | viability, T/C (second compound 10 µM, first compound 0.00316 µM): 52.9% | viability, T/C (second compound 10 µM, first compound 0.01 µM): 41.4% | viability, T/C [31]: 19% | viability, T/C [32]: 8.88% | viability, T/C [33]: 8.76% | viability, T/C [34]: 6.74%

COc1cc2cc(C(=O)CCC(=O)O)sc2cc1OC + COC1C(OC(N)=O)C(O)C(Oc2ccc3c(O)c(NC(=O)c4ccc(O)c(CC=C(C)C)c4)c(=O)oc3c2C)OC1(C)C
IC50 (second compound 0.0316 µM): > 10000 nM | IC50 (second compound 0.1 µM): > 10000 nM | IC50 (second compound 0.316 µM): > 10000 nM | IC50 (second compound 1 µM): > 10000 nM | IC50 (second compound 3.16 µM): > 10000 nM | IC50 (second compound 10 µM): > 10000 nM | viability, T/C [1]: 110% | viability, T/C [2]: 99.3% | viability, T/C [3]: 101% | viability, T/C [4]: 99.2% | viability, T/C [5]: 106% | viability, T/C [6]: 96.6% | viability, T/C [7]: 98.3% | viability, T/C [8]: 88% | viability, T/C [9]: 103% | viability, T/C [10]: 101% | viability, T/C [11]: 103% | viability, T/C [12]: 103% | viability, T/C [13]: 102% | viability, T/C [14]: 102% | viability, T/C [15]: 93.6% | viability, T/C [16]: 99.5% | viability, T/C [17]: 98.1% | viability, T/C [18]: 120% | viability, T/C [19]: 111% | viability, T/C [20]: 99.1% | viability, T/C [21]: 109% | viability, T/C [22]: 106% | viability, T/C [23]: 110% | viability, T/C [24]: 103% | viability, T/C [25]: 89.5% | viability, T/C [26]: 108% | viability, T/C [27]: 100% | viability, T/C [28]: 98.9% | viability, T/C [29]: 105% | viability, T/C [30]: 114% | viability, T/C [31]: 106% | viability, T/C [32]: 111% | viability, T/C [33]: 110% | viability, T/C [34]: 117% | viability, T/C [35]: 105% | viability, T/C [36]: 101%
